The record followed here is patent US8691777B2, “Combination therapy” (Emory University, priority 2011, dated 2014).

One test has as its system tsc2ang1 cells. In words: proliferation assay with tsc2ang1 cells (Coulter counter). It counts as cell-based, murine. The conditions noted are these: rapamycin 5 nM, imatinib 10 μM, 24 hours, vs DMSO control. The method, then:
10^4 tsc2ang1 cells per well were plated in 24-well dishes in triplicate. The next day, fresh medium containing the compounds or vehicle controls was added. Cells were incubated at 37° C. Tsc2ang1 (ATCC CRL 2620) is a murine cell line derived from a cutaneous sarcoma that arose in the extremity of a mouse heterozygous for tsc2; these mice develop cutaneous sarcomas at a frequency of about 10 to 15%. The cells were cultured in complete DMEM medium supplemented with 10% FBS (Sigma Aldrich, St Louis, Mo.). […] Cells were treated with vehicle control (DMSO), rapamycin (5 nM), imatinib (10 μM) or imatinib (10 μM)+rapamycin (5 nM) (shown along X-axis) for 24 h and counted using a Coulter counter. The Y-axis represents cell number with error bars representing the SEM.

Another test relates to MMP-2. In words: gelatin zymography of conditioned media of tsc2ang1 cells. It counts as cell-based, murine. Particulars: 24 hours, vs DMSO-treated control.
Another test addresses PDGFR-β (Mus musculus, UniProt P05622). In words: Western blot of PDGFR-β and phospho-PDGFR-β in Tsc2ang1 cells. The conditions noted are these: imatinib 10 μm, rapamycin 10 nM, vs DMSO control. (A western blot detects proteins with antibodies after separation by electrophoresis.)

PDGFR-β, sequence (P05622 32-1098): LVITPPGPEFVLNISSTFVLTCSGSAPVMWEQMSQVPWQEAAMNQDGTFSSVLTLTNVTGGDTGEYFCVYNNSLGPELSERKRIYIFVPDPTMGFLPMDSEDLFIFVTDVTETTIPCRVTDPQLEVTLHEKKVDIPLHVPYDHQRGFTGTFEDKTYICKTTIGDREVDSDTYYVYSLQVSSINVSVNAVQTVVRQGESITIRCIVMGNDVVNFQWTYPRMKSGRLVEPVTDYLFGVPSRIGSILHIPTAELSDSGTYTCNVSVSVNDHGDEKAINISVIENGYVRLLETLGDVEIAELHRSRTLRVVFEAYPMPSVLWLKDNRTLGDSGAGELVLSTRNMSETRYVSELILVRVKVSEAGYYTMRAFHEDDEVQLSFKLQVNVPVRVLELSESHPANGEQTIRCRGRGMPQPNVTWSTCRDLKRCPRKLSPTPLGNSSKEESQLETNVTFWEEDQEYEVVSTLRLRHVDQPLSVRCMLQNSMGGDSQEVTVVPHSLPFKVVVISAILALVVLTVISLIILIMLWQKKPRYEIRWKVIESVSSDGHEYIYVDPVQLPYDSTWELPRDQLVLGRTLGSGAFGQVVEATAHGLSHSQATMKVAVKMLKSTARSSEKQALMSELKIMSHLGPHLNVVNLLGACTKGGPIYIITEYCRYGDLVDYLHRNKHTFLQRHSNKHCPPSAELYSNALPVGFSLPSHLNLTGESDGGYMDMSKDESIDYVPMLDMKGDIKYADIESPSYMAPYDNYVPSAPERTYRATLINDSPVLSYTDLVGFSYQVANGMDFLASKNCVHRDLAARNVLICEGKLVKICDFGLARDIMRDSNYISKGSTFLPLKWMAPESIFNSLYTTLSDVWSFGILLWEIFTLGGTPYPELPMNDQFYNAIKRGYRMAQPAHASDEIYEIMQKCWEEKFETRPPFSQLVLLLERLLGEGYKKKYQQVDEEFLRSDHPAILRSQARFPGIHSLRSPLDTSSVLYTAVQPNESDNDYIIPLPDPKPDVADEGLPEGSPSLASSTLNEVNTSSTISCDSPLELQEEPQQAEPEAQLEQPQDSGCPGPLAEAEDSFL
Procedure for MMP-2: The presence and activity of specific MMP species were detected using gelatin zymography. An aliquot of each conditioned media sample was centrifuged at 4,000 rpm for 1-5 min at 4° C. and supernatant was used. A buffer of 4% SDS, 0.15 mol/L Tris (pH 6.8), 20% glycerol and 0.5% (w/v) bromophenol blue was added to the conditioned media sample. […] Gels were then incubated over night at 37° C. in substrate buffer containing 50 mmol/L Tris-HCL (pH 8), 5 mmol/L CaCl2 and 0.02% NaN3. After incubation, gels were stained for 30 min in 0.5% Coomassie Blue R-250 dissolved in acetic acid, isopropyl alcohol and water (1:3:6); destained in acetic acid, ethanol and water (1:3:6). The finalized gel was scored for the presence/absence MMP activity by a blinded evaluator and photographed.
Procedure for PDGFR-β: The impact of imatinib (10 μm), rapamycin (10 nM), and a combination of rapamycin and imatinib on the phosphorylated PDGFR-β signaling pathway was tested in Tsc2ang1cells.
Lysates of Tsc2ang1 cells treated with vehicle or indicated drugs were prepared in NP-40 lysis buffer (1% NP-40, 150 mmol/L NaCl, 10% glycerol, 20 mmol/L HEPES, 1 mmol/L phenylmethylsulfonyl fluoride, 2.5 mmol/L EDTA, 100 μmol/L Na3VO4, and 1% aprotinin) Protein concentration in cleared lysates was determined using an Eppendorf BioPhotometer. Samples were resolved using SDS-PAGE (National Diagnostics) and transferred to nitrocellulose membranes. The membranes were blocked with 5% nonfat dry milk in 10 mmol/L Tris/0.1% Tween 20/100 mmol/L NaCl and incubated with primary antibodies followed by horseradish peroxidase-conjugated secondary antibody. The immunoreactive bands were visualized by enhanced chemiluminescence (Amersham Biosciences). The antibodies used were: Phospho-PDGFR-β antibody (Tyr 1021) (Cell signaling Laboratories); Phospho-PDGFR-β antibody (Tyr 1009) (Cell Signaling Laboratories); Aurora kinase A antibody (4718) (Cell signaling Laboratories), Aurorakinase B (3094) antibody (Cell signaling Laboratories) monoclonal anti-β-tubulin antibody (Sigma) was used as a loading control.

Regarding `Cc1ccc(NC(=O)c2ccc(CN3CCN(C)CC3)cc2)cc1Nc1nccc(-c2cccnc2)n1` [imatinib], the viable cell number entry with tsc2ang1 cells is on record as “decrease in the viable cell numbers”. For the same compound, the MMP-2 gelatinase activity entry with MMP-2 is given as “decrease in the level of MMP-2”. The “PDGFR β phosphorylation” value at PDGFR-β was “downregulation of PDGFR β phosphorylation”.
